# Values of other authors as cited in article PMC13366575, “Structure−Activity Relationships among Inhibitors of Acinetobacter baumannii and Klebsiella pneumoniae 1-Deoxy-D-xylulose 5-Phosphate Reductoisomerase (DXR/IspC) − A Promising Target for Antibiotic Development” (ACS Infectious Diseases, 2026).
# Target: KpIspC (Klebsiella pneumoniae, UniProt A6T4X5)
# Sequence (A6T4X5 entry or part of it): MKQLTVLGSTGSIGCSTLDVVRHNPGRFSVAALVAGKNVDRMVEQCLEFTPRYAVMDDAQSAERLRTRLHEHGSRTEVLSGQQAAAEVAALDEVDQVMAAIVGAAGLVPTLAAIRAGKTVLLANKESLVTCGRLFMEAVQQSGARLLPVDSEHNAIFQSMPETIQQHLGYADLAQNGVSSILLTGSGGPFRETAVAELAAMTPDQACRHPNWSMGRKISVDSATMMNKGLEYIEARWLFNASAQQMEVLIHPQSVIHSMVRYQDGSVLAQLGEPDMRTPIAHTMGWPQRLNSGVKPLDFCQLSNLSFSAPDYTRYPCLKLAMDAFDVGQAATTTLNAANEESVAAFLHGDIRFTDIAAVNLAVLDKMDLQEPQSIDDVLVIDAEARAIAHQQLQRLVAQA
structure (smiles),measurement,value
"O=CN(O)CCCP(=O)(O)O [Compound 1a, Fosmidomycin]",IC50,20 nM
